Where a name gives a salt, the structure may show the parent alone.
How the values were obtained:
arrhythmias = test: Antiarrhythmic action, aconitine infusion, rat, oral administration; type: in vivo, Sprague-Dawley rats; details: for ED50: Rattus norvegicus, po, read-out: ED 50% (dose which prolongs the aconitine infusion duration by 50%)
Description: (§1) The substances were administered orally to Sprague-Dawley rats weighing 200-250 g. 45 minutes thereafter, the animals were anesthetized with 100 mg/kg of thiobutabarbital Na, administered intraperitoneally. Aconitine, as an arrhythmogenic substance, was infused intravenously into the jugular vein 60 minutes after administration of the substance (dosage rate: 0.005 mg per kg per min). In the case of untreated animals (N=52), arrhythmias appeared in the ECG after 2.74±0.07 minutes, the appearance of these arrhythmias being delayed by antiarrhythmic agents in a dose-dependent manner.
(§2) The dose which prolongs the duration of aconitine infusion by 50%, ie. the ED 50%, was determined from the linear relationship between log dose (mg/kg) of the test substances and the relative prolongation of aconitine infusion duration (Δ%).

[1] = Acute toxicity: dose at which first toxic symptoms (change in initial ECG, cyanosis or cramp) occur, rat, oral; type: in vivo, Sprague-Dawley rats; details: Table 2, oral administration, geometric progression of doses (factor 2.154)
Description: as §1
(§3) Furthermore, the dose at which toxic symptoms (change in the initial ECG, cyanosis or cramp) occur was determined from the geometric progression of doses (factor 2.154) used in the experiments.

[2] = Therapeutic index: quotient of acute toxic dose to antiarrhythmic ED 50%; parameters: species or system Sprague-Dawley rats; details: in vivo; Table 2; rat, oral administration; measure of therapeutic index; read-out: Q (quotient of acute toxic dose to antiarrhythmic ED 50%)
Description: as §1, §2, §3
The quotient of acute toxic dose to antiarrhythmic ED 50% was determined as a measure of the therapeutic index of the novel compounds.

Structure (SMILES)	ED50 (arrhythmias)	Toxic dose (dose at which the first toxic symptoms are observed) [1]	selectivity ratio [2]	ED 50% (dose which prolongs the aconitine infusion duration by 50%) (arrhythmias; Table 2, rat, oral administration, 60 minutes before aconitine i.v. infusion 0.005 mg per kg per min)
CC(C)NCC(C)(O)CC1c2ccccc2CCc2ccccc21 (stereo not shown) [Example 1, N-[2-hydroxy-2-methyl-3-(10,11-dihydro-5H-dibenzocycloheptadienyl)-propyl]-N-isopropylamine hydrochloride]	6.51 mg/kg	–	–	–
CC(O)(CNC(C)(C)C)CC1c2ccccc2CCc2ccccc21 (stereo not shown) [Example 4]	6.47 mg/kg	215 mg/kg	33	–
C=C[C@H]1C[N@@]2CC[C@H]1C[C@@H]2[C@@H](O)c1ccnc2ccc(OC)cc12 [Quinidine, quinidine, reference compound]	–	464 mg/kg	11	43.5 mg/kg
CCCNCC(C)(O)CC1c2ccccc2CCc2ccccc21 (stereo not shown) [Example 5]	7.78 mg/kg	–	–	–
CC(O)(CC1c2ccccc2CCc2ccccc21)CN1CCC(O)(c2ccccc2)CC1 (stereo not shown) [Example 9]	2.57 mg/kg	–	–	–
CNCC(C)(O)CC1c2ccccc2CCc2ccccc21 (stereo not shown) [Example 3]	3.11 mg/kg	100 mg/kg	32	–
COCC(C)NCC(C)(O)CC1c2ccccc2CCc2ccccc21 (stereo not shown) [Example 6]	6.83 mg/kg	–	–	–

Reference: patent US4670435A, “10,11-dihydro-5H-dibenzo[a,d]cycloheptadiene derivatives in a method for treating cardiac arrhythmia” (priority 1984, dated 1987)
